Experimental data from patent US8759390B2, “Chromene modulators of chemokine receptor activity” (Bristol-Myers Squibb Company, priority 2008, dated 2014).
Where a name gives a salt, the structure may show the parent alone.

Biological target: T1, CCR2 (Homo sapiens, UniProt P41597)
T1 construct: THP-1 human monocytic leukemic cell line, which expresses endogenous CCR2; endogenous in cells; host or cells: THP-1 human monocytic leukemia cells, or human PBMC / human monocytes
T1 sequence (P41597 1-360 isoform P41597-2): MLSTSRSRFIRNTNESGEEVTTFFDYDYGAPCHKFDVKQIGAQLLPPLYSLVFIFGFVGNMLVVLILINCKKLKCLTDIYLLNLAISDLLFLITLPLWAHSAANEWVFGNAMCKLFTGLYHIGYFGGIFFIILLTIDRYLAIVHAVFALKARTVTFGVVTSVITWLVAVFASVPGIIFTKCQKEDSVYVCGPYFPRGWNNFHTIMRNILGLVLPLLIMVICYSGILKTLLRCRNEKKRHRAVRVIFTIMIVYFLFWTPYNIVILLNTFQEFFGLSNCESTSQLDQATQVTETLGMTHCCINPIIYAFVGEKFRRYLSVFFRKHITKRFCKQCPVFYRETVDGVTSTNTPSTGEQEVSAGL
Experiment: CCR2 binding (125I-human MCP-1 competition on human PBMC / THP-1 cells)
Conditions: n = 1 unless otherwise noted; tested in one of the assays described
Procedure: Antagonism of MCP-1 Binding to Human PBMC
Millipore filter plates (#MABVN1250) are treated with 100 μl of binding buffer (0.5% bovine serum albumin, 20 mM HEPES buffer and 5 mM magnesium chloride in RPMI 1640 media) for thirty minutes at room temperature. To measure binding, 50 μl of binding buffer, with or without a known concentration compound, is combined with 50 μl of ^125-I labeled human MCP-1 (to give a final concentration of […] radioligand) and 50 μl of binding buffer containing 5×10^5 cells. Cells used for such binding assays can include human peripheral blood mononuclear cells isolated by Ficoll-Hypaque gradient centrifugation, human monocytes (Weiner et al., J. Immunol. Methods. 1980, 36, 89), or the THP-1 cell line which expresses the endogenous receptor. The mixture of compound, cells and radioligand are incubated at room temperature for thirty minutes. Plates are placed onto a vacuum manifold, vacuum applied, and the plates washed three times with binding buffer containing 0.5M NaCl. The plastic skirt is removed from the plate, the plate allowed to air dry, the wells punched out and counted. The percent inhibition of binding is calculated using the total counts obtained in the absence of any competing compound and the background binding determined by addition of 100 nM MCP-1 in place of the test compound.
THP-1 Monocytic Cell Binding: Whole Cell-Based Assay
The human CCR2 binding assay was also established with the THP-1 human monocytic leukemic cell line, which expresses endogenous CCR2, using ^125I-human MCP-1 as the tracer ligand. Radioligand competition binding assays were used for assessment of binding affinity of test compounds to the CCR2 receptor. For radioligand competition studies, 100 μl containing 2.5×10^5 THP-1 cells/well (in assay buffer containing 50 mM HEPES, pH7.4, 5mM MgCl2, 1 mM CaCl2 and 0.5% BSA) were added to 96-well assay plates containing the test compounds in 3-fold serial dilution, with final concentrations ranging from 5 μM to […]. Subsequently, 50 μl ^125I-MCP-1 radioligand at a final concentration of 0.2 nM in assay buffer were added to the reaction. After a 90 minute incubation period at room temperature, the binding reaction was terminated by harvesting on GF/B filter plates (PerkinElmer Cat. No. 6005177) followed by washing with ice-cold wash buffer (50 mM HEPES, pH 7.4, 0.1% BSA, 0.5 M NaCl) to remove unbound ligand. After washing, the plate was dried for 45 minutes at 60° C. followed by addition of 40 μl MicroScint 20 scintillation fluid, sealed and analyzed by the Packard TopCount reader. Non-specific binding was determined in the presence of 10 μM (a molar excess of […]) of an in-house CCR2 small molecule antagonist (CCR2 IC50=2 nM). Specific binding of ^125I-MCP-1 was calculated as the difference between total and non-specific binding. The competition data was plotted as a percentage inhibition of radioligand specific bound in the absence of test compound (percent of total signal). After correcting for non-specific binding, IC50 values were determined The IC50 is defined as the concentration of test compound required to reduce ^125I-MCP-1 specific binding by 50% and was calculated using the four parameter logistic equation to fit the normalized data.

Ki	Compound
720 nM	O=C(O)C1=Cc2ccccc2OC1c1ccc(C(F)(F)F)c(F)c1 (racemic) [Example 5-18, 2-(3-fluoro-4-trifluoromethylphenyl)-2H-chromene-3-carboxylic acid]
4500 nM	Cc1ccc(C2Oc3ccccc3C=C2C(=O)O)cc1 (racemic) [Example 5-19, 2-(4-methylphenyl)-2H-chromene-3-carboxylic acid]
4200 nM	Cc1cccc(C2Oc3ccccc3C=C2C(=O)O)c1 (racemic) [Example 5-20, 2-(3-methylphenyl)-2H-chromene-3-carboxylic acid]
1400 nM	O=C(O)C1=Cc2ccccc2OC1c1ccccn1 (racemic) [Example 5-21, 2-(pyridin-2-yl)-2H-chromene-3-carboxylic acid]
2100 nM	O=C(O)C1=Cc2ccccc2OC1c1ccc2ccccc2n1 (racemic) [Example 5-22, 2-(quinolin-2-yl)-2H-chromene-3-carboxylic acid]
4300 nM	O=C(O)C1=Cc2ccccc2OC1c1cnc2ccccc2c1 (racemic) [Example 5-23, 2-(quinolin-3-yl)-2H-chromene-3-carboxylic acid]
1100 nM	O=C(O)C1=Cc2ccccc2OC1c1ccc(F)c(C(F)(F)F)c1 (racemic) [Example 5-24, 2-(3-trifluoromethyl-4-fluoro-phenyl)-2H-chromene-3-carboxylic acid]
8300 nM	O=C(O)C1=Cc2ccccc2OC1c1cccc(C(F)(F)F)n1 (racemic) [Example 5-25, 2-(6-trifluoromethyl-pyridin-2-yl)-2H-chromene-3-carboxylic acid]
2600 nM	O=C(O)C1=Cc2ccccc2OC1c1cccc(Cl)c1Cl (racemic) [Example 5-26, 2-(2,3-dichlorophenyl)-2H-chromene-3-carboxylic acid]
2900 nM	COc1cc(C2Oc3ccccc3C=C2C(=O)O)ccc1Cl (racemic) [Example 7-1, 2-(3-methoxy-4-chlorophenyl)-2H-chromene-3-carboxylic acid]
4500 nM	O=C(O)C1=Cc2ccccc2OC1c1ccc(Cl)nc1 (racemic) [Example 7-2, 2-(6-chloropyridin-3-yl)-2H-chromene-3-carboxylic acid]
570 nM	O=C(O)C1=Cc2ccccc2OC1c1cnc(Cl)c(Cl)c1 (racemic) [Example 7-3, 2-(5,6-dichloropyridin-3-yl)-2H-chromene-3-carboxylic acid]

Second part, the molecule before the results:

Compound	Ki
O=C(O)C1=Cc2ccccc2OC1c1cccc(Cl)c1 (racemic) [Example 1, 2-(3-chlorophenyl)-2H-chromene-3-carboxylic acid]	2000 nM
O=C(O)C1=Cc2ccccc2OC1c1ccc(Cl)c(C(F)(F)F)c1 (racemic) [Example 2-1, 2-(4-chloro-3-(trifluoromethyl)phenyl)-2H-chromene-3-carboxylic acid]	75 nM
O=C(O)C1=Cc2ccccc2OC1c1ccc(Cl)cc1 (racemic) [Example 2-2, 2-(4-chlorophenyl)-2H-chromene-3-carboxylic acid]	950 nM
COc1ccc(C2Oc3ccccc3C=C2C(=O)O)cc1 (racemic) [Example 2-3, 2-(4-methoxyphenyl)-2H-chromene-3-carboxylic acid]	5300 nM
O=C(O)C1=Cc2ccccc2OC1c1cc(Cl)cc(Cl)c1 (racemic) [Example 2-4, 2-(3,5-dichlorophenyl)-2H-chromene-3-carboxylic acid]	4500 nM
O=C(O)C1=Cc2ccccc2OC1c1ccc2c(c1)OCO2 (racemic) [Example 3, 2-(benzo[d][1,3]dioxol-5-yl)-2H-chromene-3-carboxylic acid]	1100 nM
CC1(c2ccc(Cl)c(Cl)c2)Oc2ccccc2C=C1C(=O)O (racemic) [Example 4-1, 2-(3,4-dichlorophenyl)-2-methyl-2H-chromene-3-carboxylic acid]	220 nM
CCC1(c2ccc(Cl)c(Cl)c2)Oc2ccccc2C=C1C(=O)O (racemic) [Example 4-2, 2-(3,4-dichlorophenyl)-2-ethyl-2H-chromene-3-carboxylic acid]	1200 nM
O=C(O)C1=Cc2ccccc2OC1c1ccc(Cl)c(Cl)c1 (racemic) [Example 5-1, 2-(3,4-dichlorophenyl)-2H-chromene-3-carboxylic acid]	140 nM
O=C(O)C1=Cc2ccccc2OC1c1ccc(Cl)c2ccccc12 (racemic) [Example 5-2, 2-(4-chloronaphthalen-1-yl)-2H-chromene-3-carboxylic acid]	1900 nM
O=C(O)C1=Cc2ccccc2OC1c1ccncc1 (racemic) [Example 5-3, 2-(pyridin-4-yl)-2H-chromene-3-carboxylic acid trifluoroacetic acid salt]	1800 nM
O=C(O)C1=Cc2ccccc2OC1c1ccc2ccccc2c1 (racemic) [Example 5-4, 2-(naphthalen-2-yl)-2H-chromene-3-carboxylic acid]	1800 nM
O=C(O)C1=Cc2ccccc2OC1c1cccc2ccccc12 (racemic) [Example 5-5, 2-(naphthalen-1-yl)-2H-chromene-3-carboxylic acid]	1700 nM
O=C(O)C1=Cc2ccccc2OC1c1cccc(F)c1 (racemic) [Example 5-6, 2-(3-fluorophenyl)-2H-chromene-3-carboxylic acid]	5700 nM
O=C(O)C1=Cc2ccccc2OC1c1ccc(Cl)c(F)c1 (racemic) [Example 5-7, 2-(3-fluoro-4-chlorophenyl)-2H-chromene-3-carboxylic acid]	290 nM
O=C(O)C1=Cc2ccccc2OC1c1ccc(F)c(Cl)c1 (racemic) [Example 5-8, 2-(3-chloro-4-fluorophenyl)-2H-chromene-3-carboxylic acid]	560 nM
O=C(O)C1=Cc2ccccc2OC1c1cccc(C(F)(F)F)c1 (racemic) [Example 5-9, 2-(3-trifluoromethylphenyl)-2H-chromene-3-carboxylic acid]	1600 nM
O=C(O)C1=Cc2ccccc2OC1c1ccc(C(F)(F)F)cc1 (racemic) [Example 5-10, 2-(4-trifluoromethylphenyl)-2H-chromene-3-carboxylic acid]	920 nM
O=C(O)C1=Cc2ccccc2OC1c1ccc(F)c(F)c1 (racemic) [Example 5-11, 2-(3,4-difluorophenyl)-2H-chromene-3-carboxylic acid]	8600 nM
O=C(O)C1=Cc2ccccc2OC1c1cccc([N+](=O)[O-])c1 (racemic) [Example 5-12, 2-(3-nitrophenyl)-2H-chromene-3-carboxylic acid]	2800 nM
O=C(O)C1=Cc2ccccc2OC1c1ccc(Cl)c([N+](=O)[O-])c1 (racemic) [Example 5-13, 2-(3-nitro-4-chlorophenyl)-2H-chromene-3-carboxylic acid]	230 nM
Cc1cc(C2Oc3ccccc3C=C2C(=O)O)ccc1Cl (racemic) [Example 5-14, 2-(3-methyl-4-chlorophenyl)-2H-chromene-3-carboxylic acid]	160 nM
O=C(O)C1=Cc2ccccc2OC1c1ccc(Br)cc1 (racemic) [Example 5-15, 2-(4-bromophenyl)-2H-chromene-3-carboxylic acid]	430 nM
O=C(O)C1=Cc2ccccc2OC1c1cccc(Br)c1 (racemic) [Example 5-16, 2-(3-bromophenyl)-2H-chromene-3-carboxylic acid]	1700 nM
O=C(O)C1=Cc2ccccc2OC1c1ccc(Br)c(Br)c1 (racemic) [Example 5-17, 2-(3,4-dibromophenyl)-2H-chromene-3-carboxylic acid]	85 nM
